Laboratory results: patent US6451806B2, “Methods and compositions involving opioids and antagonists thereof” (Adolor Corporation, priority 1999, dated 2002)

What was measured:
[1] = system: effect of intravenous morphine sulfate on upper gastrointestinal motility; assay: Phase I study in healthy volunteers with intravenous morphine sulfate; type: in vivo, humans; conditions: 4 mg oral dose
[2] = system: loperamide-induced slowing of gut motility; assay: clinical crossover study of loperamide-induced slowing of gut motility (colonic transit time); type: in vivo; conditions: man, 8 mg b.i.d. oral loperamide
Description: A clinical study in man was an 8 subject multiple crossover study of the effects of oral pre-treatment with placebo, 2.4 mg or 24 mg t.i.d. of the compound of formula (II) on slowing of gut motility induced with 8 mg of b.i.d. of oral loperamide (a peripheral mu opioid agonist). […] The graph presents the effects of 2.4 or 24 mg of the compound of formula (II) on colonic transit time (in hours) following administration of loperamide. The loperamide dose was constant in the three treatment groups.

[3] = system: postsurgical opioid effects, postoperative nausea and vomiting; assay: Phase II clinical study, partial colectomy or hysterectomy, postoperative nausea and vomiting (VAS); type: in vivo, humans; conditions: for patients reporting VAS nausea scores over 20 / patients exhibiting no nausea (highest VAS score=0): postoperative morphine or meperidine
Description: A 78 patient Phase II clinical study was conducted which compared two doses (2 mg and 12 mg) of the compound of formula (II) versus placebo in patients undergoing partial colectomy or simple or radical hysterectomy surgical procedures. All patients in this clinical study received morphine or meperidine infusions to treat postoperative pain. Oral doses of compound (II) or placebo were administered to block postsurgical opioid effects, including postoperative nausea and vomiting. Results of this study comparing patients receiving 12 mg of compound (II) and placebo are depicted graphically in FIGS. 2A and 2B.
The intensity of nausea was evaluated by patients on a 100-point visual analog scale (VAS) with VAS=0 being no nausea and VAS=100 being the worst nausea that a patient could imagine. The highest VAS nausea score (worst nausea) recorded for each patient was computed and the distributions of these maximum values were compared among the treatment groups. […] The overall treatment differences in the distributions were significant when compared using a Kruskal-Wallis test (P=0.0184). The improved outcomes observed in the 12 mg per day dose group are evident in the pairwise comparisons based on the Wilcoxon rank sum tests.

[4] = system: inhibition of gastrointestinal transit produced by MS Contin; assay: Phase I study in volunteers with oral sustained-release morphine (MS Contin); type: in vivo, humans; conditions: 3 mg oral three times daily for 4 days, MS Contin 30 mg twice daily
Description: Pupil size was used as a surrogate measure of the morphine's analgesic activity.

[5] = system: analgesia and pupil constriction produced by intravenous morphine sulfate; assay: Phase II clinical study, third molar extraction dental surgery, intravenous morphine sulfate; type: in vivo, humans; conditions: 4 mg total oral dose
solubility in water = type: physicochemical; conditions: except at low or high pH conditions
Description: Zwitterionic character may be inherent to the compound, and may impart desirable properties such as poor systemic absorption and sustained local affect on the gut following oral administration.

[6] = system: morphine-induced constipation in mice; assay: mouse model of opioid-induced constipation (charcoal meal transit time); type: in vivo
Description: This establishes that the compound of formula (II) is a gut-selective and peripherally-selective mu antagonist compound. In addition, it is orally effective in preventing or reversing morphine-induced constipation in mice.

[7] = system: opioid-induced nausea and pruritus; conditions: Yuan, C.-S. et al. Drug and Alcohol Dependence 1998, 52, 161; cited from earlier work

Row | SMILES | effect of intravenous morphine sulfate on upper gastrointestinal motility ([1]; P<0.01) | morphine-induced nausea ([1]; P=0.07) | loperamide-induced slowing of gut motility (colonic transit time) ([2]; 2.4 mg t.i.d. oral pre-treatment) | loperamide-induced slowing of gut motility (colonic transit time) ([2]; 24 mg t.i.d. oral pre-treatment) | reduction in postoperative pain control ([3]; 2 mg and 12 mg oral doses) | serious adverse side effects judged related to the compound ([3]; 2 mg and 12 mg oral doses) | patients reporting VAS nausea scores over 20 ([3]; 2 mg dose group) [%] | patients exhibiting no nausea (highest VAS score=0) ([3]; 2 mg per day oral) | patients exhibiting no nausea (highest VAS score=0) ([3]; 12 mg per day oral) [%] | patients reporting VAS nausea scores over 20 ([3]; 12 mg per day oral) [%] | distribution of highest VAS nausea score compared to placebo ([3]; 12 mg per day, Wilcoxon rank sum test, P=0.0072) | MS Contin effects on pupil size (surrogate of analgesic activity) [4] | inhibition of gastrointestinal transit produced by oral sustained-release morphine [4] | patients withdrawn for adverse effects [5] | antagonism of analgesia produced by intravenous morphine sulfate ([5]; patients) | antagonism of pupil constriction produced by intravenous morphine sulfate ([5]; patients) | solubility in water (solubility in water) | reversal of morphine-induced constipation ([6]; chronic morphine treated mice) | prevention of acute morphine-induced constipation (charcoal meal transit time) ([6]; mice, orally administered) | incidence of opioid-induced nausea and pruritus [7]
1 | C[C@H]1CN(C[C@H](Cc2ccccc2)C(=O)NCC(=O)O)CCC1(C)c1cccc(O)c1 (some centres unmarked) [compound of formula (II)] | blocked the effect of intravenous morphine sulfate on upper gastrointestinal motility | trend toward antagonizing morphine-induced nausea | prevented loperamide-induced slowing of gut motility | prevented loperamide-induced slowing of gut motility | None of the patients | No patients experienced serious adverse side effects | 67 | approximately 25% | ~40 | 27 | statistically significantly improved | without antagonizing MS Contin® effects on pupil size | blocked the inhibition of gastrointestinal transit | No patients were withdrawn for adverse effects | did not antagonize | did not antagonize | low solubility in water | even more potent in reversing morphine-induced constipation | prevented acute morphine-induced constipation | –
2 | C[N@+]1(CC2CC2)CC[C@]23c4c5ccc(O)c4O[C@H]2C(=O)CC[C@@]3(O)[C@H]1C5 [methylnaltrexone] | – | – | – | – | – | – | – | – | – | – | – | – | – | – | – | – | – | – | – | effectively reduce the incidence of opioid-induced nausea and pruritus
